{
  "source": "patent US4742049A",
  "about": "“Semisynthetic erythromycin antibiotics” (Abbott Laboratories, priority 1986, dated 1988)",
  "key": {"[1]": {"system": "gut contractions (stomach, duodenum, jejunum)", "conditions": "dog, in vivo, iv, 4 mg/kg", "description": "Compounds of this invention have been tested for gastrointestinal stimulating activity in a dog model at 4 mg/kg intravenously. Contractions in the gut were recorded with surgically implanted strain gauges. […] Ratios were calculated for the stomach, duodenum and jejunum, and a final arithmetic mean index was calculated and reported in Table 1."}, "Providencia stuartii": {"system": "Providencia stuartii", "experiment": "antimicrobial spectrum, agar dilution MIC", "format": "cell-based", "conditions": "strain CMX 640, BHI agar, 20-24 hours", "description": "(§1) Twelve petri dishes containing successive aqueous dilutions of the test compound mixed with 10 ml of sterilized Brain Heart Infusion agar (Difco 0418-01-5) are prepared. Each plate is inoculated with 1:100 (or 1:10 for slow-growing strains, primarily Micrococcus and Streptococcus) dilutions of up to 32 different microorganisms, using a Steers replicator block. The inoculated plates are incubated at 35°-37° C. for 20-24 hours. In addition, a control plate, using BHI agar containing no test compound, is prepared and incubated at the beginning and end of each test.\n(§2) An additional plate containing a compound having known susceptibility patterns for the organisms being tested and belonging to the same antibiotic class as the test compound is also prepared and incubated as a further control, as well as to provide test-to-test comparability.\n(§3) After incubation, each disk is read. The MIC is defined as the lowest concentration of drug yielding no growth, a slight haze, or sparsely isolated colonies on the inoculum spot as compared to the growth control."}, "Pseudomonas aeruginosa": {"system": "Pseudomonas aeruginosa", "experiment": "antimicrobial spectrum, agar dilution MIC", "format": "cell-based", "conditions": "Pseudomonas aeruginosa, BHI agar, 20-24 hours", "description": "as §1, §2, §3"}, "Staph. aureus": {"system": "Staph. aureus", "experiment": "antimicrobial spectrum, agar dilution MIC", "format": "cell-based", "conditions": "Staphylococcus aureus, BHI agar, 20-24 hours", "description": "as §1, §2, §3"}, "Staph. epidermidis": {"system": "Staph. epidermidis", "experiment": "antimicrobial spectrum, agar dilution MIC", "format": "cell-based", "conditions": "Staphylococcus epidermidis", "description": "as §1, §2, §3"}, "Strep. agalactiae": {"system": "Strep. agalactiae", "experiment": "antimicrobial spectrum, agar dilution MIC", "format": "cell-based", "conditions": "Streptococcus agalactiae, strain CMX 508; BHI agar, 20-24 hours", "description": "as §1, §2, §3"}, "Strep. bovis": {"system": "Strep. bovis", "experiment": "antimicrobial spectrum, agar dilution MIC", "format": "cell-based", "conditions": "Streptococcus equinus, strain A5169; BHI agar, 20-24 hours", "description": "as §1, §2, §3"}, "Strep. faecium": {"system": "Strep. faecium", "experiment": "antimicrobial spectrum, agar dilution MIC", "format": "cell-based", "conditions": "Enterococcus faecium, ATCC8043", "description": "as §1, §2, §3"}, "Strep. pyogenes": {"system": "Strep. pyogenes", "experiment": "antimicrobial spectrum, agar dilution MIC", "format": "cell-based", "conditions": "Streptococcus pyogenes, BHI agar, 20-24 hours", "description": "as §1, §2, §3"}, "E. coli": {"system": "E. coli", "experiment": "antimicrobial spectrum, agar dilution MIC", "format": "cell-based", "conditions": "Escherichia coli, BHI agar, 20-24 hours"}, "Micrococcus luteus": {"system": "Micrococcus luteus", "experiment": "antimicrobial spectrum, agar dilution MIC", "format": "cell-based", "conditions": "strain 9341, BHI agar, 20-24 hours"}, "Lactobacillus Casei": {"system": "Lactobacillus Casei", "experiment": "antimicrobial spectrum, agar dilution MIC", "format": "cell-based", "conditions": "Lacticaseibacillus casei, ATCC7469, strain ATCC 7469; BHI agar, 20-24 hours"}, "Ent. aerogenes": {"system": "Ent. aerogenes", "experiment": "antimicrobial spectrum, agar dilution MIC", "format": "cell-based", "conditions": "Klebsiella aerogenes, ATCC13048, strain ATCC 13048; BHI agar, 20-24 hours; read-out: MIC"}, "Klebsiella pneumoniae": {"system": "Klebsiella pneumoniae", "experiment": "antimicrobial spectrum, agar dilution MIC", "format": "cell-based", "conditions": "strain 8045, BHI agar, 20-24 hours"}, "Pseudomonas cepacia": {"system": "Pseudomonas cepacia", "experiment": "antimicrobial spectrum, agar dilution MIC", "format": "cell-based", "conditions": "Burkholderia cepacia, strain 2961; BHI agar, 20-24 hours; read-out: MIC", "description": "Erythromycin A was used for this purpose.\nAfter incubation, each disk is read."}, "Acinetobacter SP": {"system": "Acinetobacter SP", "experiment": "antimicrobial spectrum, agar dilution MIC", "format": "cell-based", "conditions": "strain CMX 669, BHI agar, 20-24 hours"}},
  "data": [
    {"compound": "CC[C@H]1OC(=O)[C@H](C)[C@@H](O[C@H]2C[C@@](C)(OC)[C@@H](O)[C@H](C)O2)[C@H](C)[C@@H](O[C@@H]2O[C@H](C)C[C@H](N(C)C)[C@H]2O)[C@](C)(O)C[C@@H](C)C(=O)[C@H](C)[C@H]2N(C)C(=O)O[C@]12C", "note": "[Example 19, 11-deoxyerythromycin A 11,12-(N-methyl)cyclic carbamate]", "values": [
      {"measurement": "Gastrointestinal Motility Index", "setting": "[1]", "value": 5.83}
    ]},
    {"compound": "CC[C@H]1OC(=O)[C@H](C)[C@@H](O[C@H]2C[C@@](C)(OC)[C@@H](O)[C@H](C)O2)[C@H](C)[C@@H](O[C@@H]2O[C@H](C)C[C@H](N(C)C)[C@H]2O)[C@](C)(O)C[C@@H](C)C(=O)[C@H](C)[C@H]2NC(=O)O[C@@]21C", "note": "[Example 18, 11-deoxyerythromycin A 11,12-cyclic carbamate]", "values": [
      {"measurement": "Gastrointestinal Motility Index", "setting": "[1]", "value": 3.60}
    ]},
    {"compound": "CC[C@H]1OC(=O)[C@H](C)[C@@H](O[C@H]2C[C@@](C)(OC)[C@@H](O)[C@H](C)O2)[C@H](C)[C@@H](O[C@@H]2O[C@H](C)C[C@H](N(C)C)[C@H]2O)[C@](C)(OC)C[C@@H](C)C(=O)[C@H](C)[C@H]2N(Cc3ccccc3)C(=O)O[C@]12C", "note": "[Example 3, 11-deoxy-6-O-methyl erythromycin A 11,12-(N-benzyl)cyclic carbamate]", "values": [
      {"measurement": "MIC", "setting": "Providencia stuartii", "value": "> 100", "unit": "µg/mL"},
      {"measurement": "MIC", "setting": "Pseudomonas aeruginosa; strain 5007", "value": "> 100", "unit": "µg/mL"},
      {"measurement": "MIC", "setting": "Pseudomonas aeruginosa; strain BMH10", "value": 25, "unit": "µg/mL"},
      {"measurement": "MIC", "setting": "Pseudomonas aeruginosa; strain K799/61", "value": 3.1, "unit": "µg/mL"},
      {"measurement": "MIC", "setting": "Pseudomonas aeruginosa; strain K799/WT", "value": "> 100", "unit": "µg/mL"},
      {"measurement": "MIC", "setting": "Staph. aureus; ATCC6538P, strain ATCC 6538P", "value": 0.39, "unit": "µg/mL"},
      {"measurement": "MIC", "setting": "Staph. aureus; strain 45", "value": 0.1, "unit": "µg/mL"},
      {"measurement": "MIC", "setting": "Staph. aureus; strain 45 RAR 2", "value": 0.39, "unit": "µg/mL"},
      {"measurement": "MIC", "setting": "Staph. aureus; strain A5177", "value": 0.78, "unit": "µg/mL"},
      {"measurement": "MIC", "setting": "Staph. aureus; strain CMX 686B", "value": 0.39, "unit": "µg/mL"},
      {"measurement": "MIC", "setting": "Staph. epidermidis", "value": 0.2, "unit": "µg/mL"},
      {"measurement": "MIC", "setting": "Staph. epidermidis; strain 3519 RARI, BHI agar, 20-24 hours", "value": 0.2, "unit": "µg/mL"},
      {"measurement": "MIC", "setting": "Strep. agalactiae", "value": 0.02, "unit": "µg/mL"},
      {"measurement": "MIC", "setting": "Strep. bovis", "value": 0.02, "unit": "µg/mL"},
      {"measurement": "MIC", "setting": "Strep. faecium", "value": 0.1, "unit": "µg/mL"},
      {"measurement": "MIC", "setting": "Strep. pyogenes; strain 930", "value": 100, "unit": "µg/mL"},
      {"measurement": "MIC", "setting": "Strep. pyogenes; strain EES61", "value": 0.02, "unit": "µg/mL"},
      {"measurement": "MIC", "setting": "E. coli; strain DC-2", "value": 25, "unit": "µg/mL"},
      {"measurement": "MIC", "setting": "E. coli; strain H560", "value": 6.2, "unit": "µg/mL"},
      {"measurement": "MIC", "setting": "E. coli; strain JUHL", "value": 25, "unit": "µg/mL"},
      {"measurement": "MIC", "setting": "E. coli; strain KNK 437", "value": 25, "unit": "µg/mL"},
      {"measurement": "MIC", "setting": "E. coli; strain SS", "value": 0.39, "unit": "µg/mL"},
      {"measurement": "MIC", "setting": "Micrococcus luteus", "value": 0.05, "unit": "µg/mL"},
      {"measurement": "MIC", "setting": "Lactobacillus Casei", "value": 0.05, "unit": "µg/mL"},
      {"measurement": "MIC", "setting": "Ent. aerogenes", "value": 50, "unit": "µg/mL"},
      {"measurement": "MIC", "setting": "Klebsiella pneumoniae", "value": 25, "unit": "µg/mL"},
      {"measurement": "MIC", "setting": "Pseudomonas cepacia", "value": 50, "unit": "µg/mL"},
      {"measurement": "MIC", "setting": "Acinetobacter SP", "value": 50, "unit": "µg/mL"}
    ]}
  ]
}
